{
  "source": "patent US20120328696A1",
  "about": "“ANTI-PARKINSONIAN COMPOUND ACETYLSALICYLIC ACID MALTOL ESTER” (Hutecs Korea Pharmaceutical Co., Ltd., priority 2008, published 2012)",
  "assay_type_in_all_cases": "in vivo",
  "key": {"[1]": {"system": "GPx-1 (+/+)- and GPx-1 (−/−)-mice", "test": "Rota-rod test after MA", "details": "MA 8 mg/kg i.p. x4, GPx-1 (+/+) and (−/−) mice", "procedure": "(§1) The mice received four times of MA (8 mg/kg, ip) or saline as a 2 hr-time interval. Chemicals (AME, EBS, and PKC inhibitors) were administrated for 5 consecutive days (twice daily), and were given 2 times at 4 hr and 30 min before the first MA injection as shown in the experimental schedule. Animals were sacrificed at 4 hrs and 3 days after the final MA administration.\nThe apparatus (Ugo Basile model 7650, Comerio, VA, Italy) consisted of a base platform and a rotating rod with a nonslippery surface. The rod was placed at a height of 15 cm from the base. The rod, 30 cm in length, was divided into 5 equal sections by 6 opaque disks (so that the subjects cannot be distracted by one another) To assess motor performance, the mice first trained on the apparatus 2 minutes at a constant rate of 4 r.p.m. per 30 s prior to the test. The test was performed 30 minutes after training and an accelerating paradigm was applied, starting from a rate of 4 r.p.m. to a maximum speed of 40 r.p.m., then the rotation speed was kept constant at 40 r.p.m. for a maximum of 300 s. The duration for which the animal could maintain balance on the rotating drum was measured as the rotarod latency, with a maximal cut-off time of 300 s."}, "[2]": {"system": "tyrosine hydroxylase (TH)", "test": "Striatal tyrosine hydroxylase (TH) activity after MA", "details": "p.o.; AME 50, EBS 20, rottlerin 20 mg/kg; MA 8 mg/kg i.p. x4; GPx-1 (+/+) and (−/−) mice", "procedure": "as §1\nTH activity was measured according to the method of Lucock et al. with some modification (Duan et al., 2005). Briefly, striatum was lysed in 400 μl TH working solution (1-tyrosine: 300 μmol/L; FeSO4: 1 mmol/L; NaAC: 200 mmol/L; NSD-1050:500 won; DTT: 1 mmol/L; MES: 40 mmol/L, pH 5.2-5.6) with freezing-thawing repeatedly for three times. The lysate was reacted for 3 h at 25° C. The reaction was stopped by 0.4 mol/L perchloric acid, and then reactant was centrifuged at 14,000×g for 10 min. Supernatants were collected to assay the amounts of 1-dopa by HPLC-ECD. The activity of TH was expressed as that amount of 1-dopa per minute and per gram of wet tissue."}, "tyrosine hydroxylase": {"system": "tyrosine hydroxylase", "test": "Striatal and nigral TH-like immunoreactivity after MA (immunocytochemistry)", "details": "p.o., AME 50, EBS 20, rottlerin 20 mg/kg, MA 8 mg/kg i.p. x4, GPx-1 (+/+) and (−/−) mice; for effect on MA-induced reduction in striatal TH-IR: striatum; for effect on MA-induced nigral reduction in TH-IR: substantia nigra pars compacta", "procedure": "as §1\nAnimals were sacrificed at 4 hours and 3 days after the last MA injection. They were anesthetized with 60% urethane and perfused transcardially with 50 ml of 50 mM phosphate buffered saline (PBS), followed by 50 ml of a mixture of 4% paraformaldehyde in PBS. The rate of perfusion was 50 ml/min. The brains were removed, post-fixed at 4° C. for 24 h in the same fixative and then cryoprotected in 30% sucrose in PBS. The brains were cut on a horizontal sliding microstome into 40 μm transverse free-floading sections (Kim et al., 1999).\nThe immunocytochemistry was performed as described previously (Kim et al., 2000a, b). Briefly, prior to incubation with the primary antibodies, sections were preincubated with 0.3% hydrogen peroxide in PBS for 30 min (to block endogenous peroxidase activity), then in PBS containing 0.4% Triton X-100 for 20 min and 1% normal serum for 20 min. The sections were then incubated for 48 h at 4° C. in primary antibody against tyrosine hydroxylase (1:500, Chemicon, Termecula, Calif., USA), GPx1 (1:500, AbFrontier, Seoul, Korea), PKC (1:200, Santa Cruz biotechnology INC, CA, USA) or F4/80 (1:50, Serotec, Raleigh, N.C., USA). The sections were further incubated with secondary biotinylated antisera (1:1000 dilution; Vector, Brulingame, Calif.) for 1 hr, and immersed in avidin-biotin-peroxidase complex (ABC Elite kit, Vector) for 1 hr. Sections were always washed three times with PBS (pH 7.4) between each incubation step. 3,3′-diaminobenzidine (DAB) was used as a chromogen."}, "interleukin (IL)-6": {"system": "interleukin (IL)-6", "test": "IL-6 expression after MA (western blot)", "details": "p.o.; AME 50, EBS 20, rottlerin 20 mg/kg; MA 8 mg/kg i.p. x4; GPx-1 (+/+) and (−/−) mice", "procedure": "as §1\n(§2) The western blot assays was performed as described previously (Kim et al., 2003). Tissues were homogenized in lysis buffer, containing 200 mM Tris HCl (pH 6.8), 1% SDS, 5 mM EGTA (ethylene glycol tetraacetic acid), 5 mM EDTA (ethylenediaminetetraacetic acid), 10% glycerol, 1× phosphatase inhibitor cocktail I, 1× protease inhibitor cocktail. Lysate was centrifuged at 12,000×g for 30 min and supernatant fraction was used for Western blot analysis. Proteins (20-50 ug/lane) were separated by 6%, 8%, 10% or 15% sodium dodecyl sulfate-polyacrylamide gel electrophoresis and transferred onto the PVDF membranes. Following transfer, the membranes were preincubated with 5% non-fat milk and incubated overnight at 4° C. with primary antibody against β-actin (1:50000, Sigma, St. Louis, Mo., USA), TH (1:5000, Chemicon), TH phosphor-Ser 19 (1:1000, Chemicon,), TH phosphor-Ser 31 (1:500, Chemicon), TH phosphor-Ser 40 (1:500, Chemicon), F4/80 (1:500, Serotec), GPx1 (1:2500, AbFrontier), PKC (1:5000, Santa Cruz biotechnology, Santa Cruz, Calif., USA), p53 (1:5000, Cell signaling, Beverly, Mass., USA), MDM2 (1:1000, BD Pharmingen, San Jose, Calif., USA), MDM2 phospho-Ser 166 (1:1000, cell signaling), BDNF (1:500, Chemicon), GDNF (1:250, Santa Cruz), COX-2 (1:2000, Cayman, Ann Arbor, MC, USA), IL-6 (1:2000, Abcam, Cambridge, Mass., USA), TNF-a (1:1000, R&D Systems, Mckinley place NE, NM, USA), IFN-γ (1:500, Chemicon) or Iba-1 (1:500, Wako, Osaka, Japan). And then, membranes were incubated with HRP-conjugated secondary anti-rabbit IgG (1:1000, GE healthcare, Piscataway, N.J., USA), anti-mouse IgG (1:1000, Sigma) or anti-goat IgG (1:1000, Sigma) for 2 h. […]"}, "p53": {"system": "p53", "test": "Striatal p53 expression after MA (western blot)", "details": "p.o.; AME 50, EBS 20, rottlerin 20 mg/kg; MA 8 mg/kg i.p. x4; GPx-1 (+/+) and (−/−) mice", "procedure": "as §1, §2"}, "TH phospho-ser 40": {"system": "TH phospho-ser 40", "test": "Striatal phospho-TH-ser 40 after MA (western blot)", "details": "p.o.; AME 50, EBS 20, rottlerin 20 mg/kg; MA 8 mg/kg i.p. x4; GPx-1 (+/+) and (−/−) mice", "procedure": "as §1, §2"}, "[3]": {"details": "p.o., AME 25 or 50, EBS 10 or 20, rottlerin 10 or 20 mg/kg"}},
  "data": [
    {"smiles": "O=c1c2ccccc2[se]n1-c1ccccc1", "note": "[EBS, 2-phenyl-1,2-benzisoselenazol-3(2H)-one]", "values": [
      {"measurement": "effect on MA-induced impairment in rota-rod performance", "setting": "[1]; [3]", "value": "inhibited these effects in a dose-dependent manner"},
      {"measurement": "effect on MA-induced decrease in TH activity", "setting": "[2]", "value": "decrease in TH activity was attenuated"},
      {"measurement": "effect on MA-induced reduction in striatal TH-IR", "setting": "tyrosine hydroxylase", "value": "attenuated this reduction in striatal TH-IR"},
      {"measurement": "effect on MA-induced nigral reduction in TH-IR", "setting": "tyrosine hydroxylase", "value": "significantly attenuated MA-induced nigral reduction in TH-IR"},
      {"measurement": "effect on MA-induced increase in IL-6 expression", "setting": "interleukin (IL)-6", "value": "significantly and consistently attenuating effects"},
      {"measurement": "effect on MA-induced increase in striatal p53 expression", "setting": "p53", "value": "significantly inhibited MA-induced increase in p53 expression"},
      {"measurement": "effect on MA-induced decrease in phospho-TH-ser 40", "setting": "TH phospho-ser 40", "value": "significantly blocked"}
    ]},
    {"smiles": "CC(=O)c1c(O)c(C)c(O)c(Cc2c(O)c3c(c(C(=O)/C=C/c4ccccc4)c2O)OC(C)(C)C=C3)c1O", "note": "[rottlerin]", "values": [
      {"measurement": "effect on MA-induced impairment in rota-rod performance", "setting": "[1]; PKC inhibitors intra-striatal (chelerythrine 0.2 ug/head, rottlerin 3.0 ug/head significant)", "value": "attenuated the MA-behavioral impairments in a dose-dependent manner"},
      {"measurement": "effect on MA-induced impairment in rota-rod performance", "setting": "[1]; [3]", "value": "inhibited these effects in a dose-dependent manner"},
      {"measurement": "effect on MA-induced decrease in TH activity", "setting": "[2]", "value": "decrease in TH activity was attenuated"},
      {"measurement": "effect on MA-induced reduction in striatal TH-IR", "setting": "tyrosine hydroxylase", "value": "attenuated this reduction in striatal TH-IR"},
      {"measurement": "effect on MA-induced nigral reduction in TH-IR", "setting": "tyrosine hydroxylase", "value": "significantly attenuated MA-induced nigral reduction in TH-IR"},
      {"measurement": "effect on MA-induced increase in IL-6 expression", "setting": "interleukin (IL)-6", "value": "significantly and consistently attenuating effects"},
      {"measurement": "effect on MA-induced increase in striatal p53 expression", "setting": "p53", "value": "significantly inhibited MA-induced increase in p53 expression"},
      {"measurement": "effect on MA-induced decrease in phospho-TH-ser 40", "setting": "TH phospho-ser 40", "value": "significantly blocked"}
    ]},
    {"smiles": "CC(=O)Oc1ccccc1C(=O)Oc1c(C)occc1=O", "note": "[AME, 3-(2-methyl-4-pyronyl)-2-acetyloxybenzoate]", "values": [
      {"measurement": "effect on MA-induced impairment in rota-rod performance", "setting": "[1]; [3]", "value": "inhibited these effects in a dose-dependent manner"},
      {"measurement": "effect on MA-induced decrease in TH activity", "setting": "[2]", "value": "decrease in TH activity was attenuated"},
      {"measurement": "effect on MA-induced reduction in striatal TH-IR", "setting": "tyrosine hydroxylase", "value": "attenuated this reduction in striatal TH-IR"},
      {"measurement": "effect on MA-induced nigral reduction in TH-IR", "setting": "tyrosine hydroxylase", "value": "significantly attenuated MA-induced nigral reduction in TH-IR"},
      {"measurement": "effect on MA-induced increase in IL-6 expression", "setting": "interleukin (IL)-6", "value": "significantly and consistently attenuating effects"},
      {"measurement": "effect on MA-induced increase in striatal p53 expression", "setting": "p53", "value": "significantly inhibited MA-induced increase in p53 expression"},
      {"measurement": "effect on MA-induced decrease in phospho-TH-ser 40", "setting": "TH phospho-ser 40", "value": "significantly blocked"}
    ]}
  ]
}
